Molecular target: T1, EGFR (ErbB1) L861Q (Homo sapiens, UniProt P00533, L861Q)
T1 construct: purchased Thermo Fisher Scientific (Life Technologies) SelectScreen
Experiment: SelectScreen Z'LYTE
Type: biochemical
Procedure, shortened: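 Percent values come from Thermo SelectScreen profiling of NU5455, combining activity and binding assays. CSF1R was run in Z'LYTE format at Km app ATP, and CAMK1 in Adapta format with ATP listed at 10.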

T1 sequence (P00533 25-1210 L861Q): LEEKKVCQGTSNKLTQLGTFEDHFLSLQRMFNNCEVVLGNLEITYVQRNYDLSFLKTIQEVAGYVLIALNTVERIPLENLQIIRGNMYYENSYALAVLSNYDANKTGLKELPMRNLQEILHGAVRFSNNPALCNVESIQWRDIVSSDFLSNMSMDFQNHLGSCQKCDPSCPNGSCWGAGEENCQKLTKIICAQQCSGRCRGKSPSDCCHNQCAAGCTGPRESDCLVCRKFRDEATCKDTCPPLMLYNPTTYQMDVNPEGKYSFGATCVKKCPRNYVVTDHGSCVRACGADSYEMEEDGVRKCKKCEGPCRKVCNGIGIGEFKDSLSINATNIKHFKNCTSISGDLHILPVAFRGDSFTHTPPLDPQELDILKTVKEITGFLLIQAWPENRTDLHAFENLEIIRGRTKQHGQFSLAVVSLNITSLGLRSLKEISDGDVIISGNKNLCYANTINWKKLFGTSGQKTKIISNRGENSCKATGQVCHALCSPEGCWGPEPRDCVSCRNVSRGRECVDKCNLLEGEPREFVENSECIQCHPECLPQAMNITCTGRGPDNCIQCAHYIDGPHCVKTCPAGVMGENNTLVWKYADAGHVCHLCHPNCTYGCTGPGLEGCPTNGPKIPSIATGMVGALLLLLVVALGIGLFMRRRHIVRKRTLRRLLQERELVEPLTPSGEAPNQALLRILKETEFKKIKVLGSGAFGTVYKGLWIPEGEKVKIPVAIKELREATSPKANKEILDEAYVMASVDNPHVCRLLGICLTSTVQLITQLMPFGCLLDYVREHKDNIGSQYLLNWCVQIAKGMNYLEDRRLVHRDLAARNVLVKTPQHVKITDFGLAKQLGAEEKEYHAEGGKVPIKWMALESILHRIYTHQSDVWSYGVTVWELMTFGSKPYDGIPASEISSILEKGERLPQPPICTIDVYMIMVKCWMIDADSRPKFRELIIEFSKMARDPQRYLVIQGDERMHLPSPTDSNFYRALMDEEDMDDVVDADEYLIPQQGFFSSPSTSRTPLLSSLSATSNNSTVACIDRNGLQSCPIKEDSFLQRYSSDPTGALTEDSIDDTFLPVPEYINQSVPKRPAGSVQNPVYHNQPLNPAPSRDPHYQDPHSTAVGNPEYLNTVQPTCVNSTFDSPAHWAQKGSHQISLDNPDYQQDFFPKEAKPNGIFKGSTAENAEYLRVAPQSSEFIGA

## CN(C(=O)CN1CCOCC1)c1ccc2sc3c(-c4cccc5c(=O)cc(N6CC7CCC(C6)O7)oc45)cccc3c2c1 [NU5455]
  inhibition at 1 µM: 2.2%

Source: article PMC6934184, “Selective DNA-PKcs inhibition extends the therapeutic index of localized radiotherapy and chemotherapy” (The Journal of Clinical Investigation, 2019)
